According to US9649292B2, “Method for treating prostate cancer and/or gastrointestinal cancer” (King Fahd University of Petroleum and Minerals, priority 2015, dated 2017):

Assays:
SGC7901 cells [1] = settings: cited from earlier work; for cytotoxicity with respect to cisplatin: SGC7901 cells
SGC7901 cells [2] = assay: In vitro cytotoxic MTT assay, IC50; type: cell-based, human; settings: 72 h exposure
Experimental: (§1) Human prostate PC3 and gastric SGC7901 cells were used throughout the examples of the present disclosure. Cells were cultured in Dulbecco's Modified Eagle Medium (DMEM) supplemented with 10% fetal calf serum (FCS), penicillin (100 kU L^−1) and streptomycin (0.1 g L^−1) at 37° C. in a 5% CO2-95% air atmosphere. Human gastric SGC7901 cells and prostate PC3 were incubated with these compounds at fixed concentrations or with water as a control to assess the inhibitory effect on cell growth. […] The cell survival versus drug concentration is plotted. Cytotoxicity was evaluated in vitro with reference to the IC50 value. The half maximal inhibitory concentration (IC50) is a measure of the effectiveness of a compound to inhibit biological or biochemical functions. According to the FDA, IC50 represents the concentration of a drug/compound/complex that is required for 50% inhibition in vitro. It is evaluated from the survival curves as the concentration needed for a 50% reduction of survival. IC50 values are expressed in μM. The IC50 values were calculated from dose-response curves obtained in replicate experiments.
(§2) The in vitro cytotoxic effect of mixed ligand gold(III) diamine complexes against androgen-resistant prostate PC3 and human gastric SGC7901 cancer cells were studied using MTT assay. […]

PC3 cells [3] = assay: In vitro cytotoxic MTT assay, IC50; type: cell-based, human; settings: 72 h exposure
Experimental: as §1, §2

SGC7901 cells [4] = assay: MTT assay for antiproliferative effects at fixed concentration; type: cell-based, human; settings: SGC7901, 10 μM, 24 and 72 h
Experimental: (§3) An MTT assay was used to obtain the number of living cells in the sample. Human gastric cancer SGC7901 and prostate cancer PC3 cells were seeded on 96-well plates at a predetermined optimal cell density, i.e. ca. 6,000 cells/100 μL per well in 96-well plates, to ensure exponential growth in the duration of the assay. After 24 h pre-incubation, the growth medium was replaced with the experimental medium containing the appropriate drug, using one of gold(III) compounds 1, 2 and 3 or a control using water. Six duplicate wells were set up for each sample, and cells untreated with drug served as a control. In one set of culture plates, human gastric cancer SGC7901 and human prostate PC3 cells were treated with 10 μM compounds 1, 2 and 3 as the drug and the control (water) for 24, 48 and 72 h. In other sets, the compounds 1, 2 and 3 with different concentration, i.e. 10, 20 and 30 μM, were employed to determine the growth inhibitory effect for both PC3 and SGC7901cells separately. After incubation, 10 μL MTT (6 g/L, Sigma) was added to each well and the incubation was continued for 4 h at 37° C. After removal of the medium, MTT stabilization solution [dimethylsulfoxide (DMSO): ethanol (C2H5OH)=1:1 in v/v ratio] was added to each well, and shaken for 10 min until all crystals were dissolved. Then, the optical density was detected in a micro plate reader at 550 nm wavelength using an Enzyme-Linked Immuno-Sorbent Assay (ELISA) reader. After being treated with gold(III) complexes 1, 2 and 3, the cell viability was examined by MTT assay. Each assay was performed in triplicate. An MTT assay for the inhibitory effect has been used for compounds 1, 2 and 3 against PC3 and SGC7901 cells. These cells were treated with various concentrations of compounds 1, 2 and 3 for 24-72 h.

PC3 cells [5] = assay: as above; type: cell-based, human; settings: PC3, 10 μM, 24 and 72 h
Experimental: as §3

[6] = Cyclic voltammetry in phosphate buffer; type: physicochemical; settings: phosphate buffer pH 7.4, platinum electrode, 50 mV/s, 1.0 mM
Experimental: The electrochemical experiments were performed at room temperature using a potentiostat (SP-300, Bio-Logic Science Instruments) controlled by EC-Lab v10.34 software package. The electrochemical experiments were performed at room temperature. All the measurements were performed on solutions de-aerated by bubbling ultra-pure nitrogen for 15 min. The values of reduction potential here reported were measured against a saturated calomel electrode (SCE). The cyclic voltammetry of the compounds 1, 2 and 3 were measured at scan rate of 50 mV/s on a reference buffer (40 mM phosphate, 4 mM NaCl, pH 7.4) using platinum as working electrode and graphite as a counter electrode with a concentration of 1.0 mM at room temperature. Ferrocene was used as pseudo reference to calibrate the working electrode. The couple FeIII/II formal potential of ferrocene occur at E^o/=+0.44 V (vs SCE) in 0.1 MBu4NPF6 solution in CH3CN solvent which is similar to the report value under the same experimental condition [Hans J, Beckmann A, Kruger H-J (1999) Stabilization of Copper(III) ions with deprotonated hydroxyiminoamide ligands: syntheses, structures, and electronic properties of Copper(III) and Copper(III) complexes. Eur J Inorg Chem 1:163-172—incorporated herein by reference in its entirety]. Conversion to values vs ENH was obtained upon adding +0.24 V to the corresponding SCE values.
Gold(III) complexes 1, 2 and 3 show one irreversible reduction process in which the controlled potential coulometry involves three electrons per mole. The occurrence of Au(III)/Au(0) reduction is visually indicated by the appearance of a thin gold layer deposited on the platinum electrode surface after exhaustive electrolysis (Ew, −0.7 V).

PC3 cells [7] = settings: cited from earlier work
[8] = system: chronic lymphocytic leukemia cells (CLL); settings: cited from earlier work
[9] = Stability by 1H and 13C NMR in D2O and DMSO-d6/D2O; type: physicochemical; settings: DMSO-d6/D2O (2/1 v/v), room temperature
Experimental: The stability of complexes 1, 2 and 3 were tested in water as well as in a mixture of solvents i.e. DMSO/water (2/1 in v/v ratio) by ^1H and ^13C NMR measurements. To investigate the structural stability of the complexes, NMR spectra of the complexes dissolved in D2O; and in mixed DMSO-d6/D2O (2/1 in v/v ratio) solution were obtained just after dissolution, 24 h and 1 week at room temperature in mixed DMSO-d6/D2O and at 37° C. in D2O. At least 20 mg of complexes 1, 2 and 3 in 1 mL D2O at 37° C.; and in 1 mL DMSO-d6/D2O (2/1:v/v) at room temperature were subjected to ^1H and ^13C NMR measurements and followed by their spectral analysis. Immediately after dissolution of complexes 1, 2 and 3 in the respective solvents and duplicate samples were then stored at room temperature and 37° C., respectively, and analyzed again after 24 h and 1 week in order to determine stability of complexes. Since the complexes were not used beyond a week after dissolution, so NMR measurements were limited to one week.
NMR spectra of the complexes were obtained upon immediate dissolution to serve as reference spectra and later at 24 h and after 7 days at 37° C. in D2O and at room temperature in mixed DMSO-d6/D2O in order to determine their stability. […] For example, FIGS. 12A-B and 13A-B illustrated, respectively, the ^1H and ^13C NMR profiles of the compound 1 at just after mixing and after 7 days.

N.N.[Cl][Pt][Cl] [Cisplatin]
intrinsic resistance of SGC7901 relative to PC3 cells (SGC7901 cells [1]; SGC7901 vs PC3): 7-8 fold | IC50 (SGC7901 cells [2]): 7.3 µM | IC50 (PC3 cells [3]): 1100 nM

NCCN.N[C@@H]1CCCC[C@@H]1N.[Cl][Au]([Cl])[Cl] [Complex 1, cis-1,2-diaminocyclohexane ethylenediamine gold(III) chloride]
order of time dependent antiproliferative effect (SGC7901 cells [4]): complex 1>complex 3>complex 2 | order of time dependent antiproliferative effect (PC3 cells [5]): complex 1>complex 3>complex 2 | Ep, peak potential for reduction vs. ENH [6]: 0.49 V

NCCN.N[C@@H]1CCCC[C@H]1N.[Cl][Au]([Cl])[Cl] (racemic) [Complex 2, trans-(±)-1,2-diaminocyclohexane ethylenediamine gold(III) chloride]
order of time dependent antiproliferative effect (SGC7901 cells [4]): complex 1>complex 3>complex 2 | order of time dependent antiproliferative effect (PC3 cells [5]): complex 1>complex 3>complex 2 | Ep, peak potential for reduction vs. ENH [6]: 0.46 V

NCCN.NCCN.[Au+3].[Cl-].[Cl-].[Cl-] [[Au(en)2]Cl3]
cytotoxicity with respect to cisplatin (SGC7901 cells [1]): slightly lower cytotoxicity | cytotoxic effect compared to cisplatin (PC3 cells [7]): comparable to that of cisplatin

NCCN.[Au+3].[Cl-].[Cl-].[Cl-] [[(en)AuCl2]Cl]
cytotoxicity profile compared to cisplatin [8]: comparable to cisplatin | cytotoxicity with respect to cisplatin (SGC7901 cells [1]): almost two fold more cytotoxic | lower cytotoxicity as compared to cisplatin (PC3 cells [7]): 7-9 fold

NCCN.N[C@H]1CCCC[C@@H]1N.[Cl][Au]([Cl])[Cl] [Complex 3, (S,S)-(+)-1,2-diaminocyclohexane ethylenediamine gold(III) chloride]
order of time dependent antiproliferative effect (SGC7901 cells [4]): complex 1>complex 3>complex 2 | order of time dependent antiproliferative effect (PC3 cells [5]): complex 1>complex 3>complex 2 | dissociation of ethylenediamine (en) after 7 days [9]: 25% | Ep, peak potential for reduction vs. ENH [6]: 0.51 V
